Data on 14 compounds can be found in US20250127801A1, “BRIDGED TRICYCLIC CARBAMOYLPYRIDONE COMPOUNDS AND USES THEREOF” (priority 2023, published 2025).

As a reminder, the EC50 is the concentration at which the effect is half-maximal. As usually defined, the solubility (thermodynamic) is the concentration in solution at equilibrium with solid.

Converted amounts (≈) assume the structure as drawn. Where two headings read alike, the source gives them in different places.

One data set concerns HIV-1 (IIIB). In words: microbe, parasite or virus in culture. The data set is classed as cell-based.
Another data set in a line: in vitro. The following applies: human; for CC50 at 5 days: uninfected MT-4 cells.
A short description of a further data set: physchem. Conditions: 23 °C, thermodynamic from solid; for solubility thermodynamic: fassif; for solubility thermodynamic at 24 h: FaSSIF.
The mark [1] stands for this setting: Human immunodeficiency virus 1, IIIB, MT4, 120 h, read-out: MT4 EC50 (nM).
The mark [2] stands for this setting: Human immunodeficiency virus 1, MT4, 120 h, HIV-1 (IIIB) replication in MT-4 cells, 5 days incubation, Cell Titer Glo, read-out: MT4 EC50.

In the case of `CC1=NO[C@@]2(CC[C@H](C)N3C[C@H]2n2cc(C(=O)NCc4ccc(F)cc4F)c(=O)c(OCOC(=O)CC(C)(C)c4c(CC(=O)N5CCC[C@@H]5C(=O)O)cc(C)cc4OP(=O)(O)O)c2C3=O)C1` [Compound 57, (2-(2-(4-((((3′S,5S,7′R)-10′-((2,4-difluorobenzyl)carbamoyl)-3,3′-dimethyl-1′,11′-dioxo-1′,4′,5′,11′-tetrahydro-3′H,4H,7′H-spiro[isoxazole-5,6′-[2,7]methanopyrido[1,2-a][1,4]diazonin]-12′-yl)oxy)methoxy)-2-methyl-4-oxobutan-2-yl)-5-methyl-3-(phosphonooxy)phenyl)acetyl)-D-proline], the EC50 with HIV-1 (IIIB) (setting [1]) amounted to 2.55 nM. This compound had a CC50 in the data set “in vitro” of 15000 nM. The compound also came in with a thermodynamic solubility in “physchem” of 5460 µg/mL (≈ 5.79 mM).

Take `CC1=NO[C@@]2(CC[C@H](C)N3C[C@H]2n2cc(C(=O)NCc4ccc(F)cc4F)c(=O)c(OCc4ccncc4OP(=O)(O)O)c2C3=O)C1` [Compound 70, 4-((((3′S,5S,7′R)-10′-((2,4-difluorobenzyl)carbamoyl)-3,3′-dimethyl-1′,11′-dioxo-1′,4′,5′,11′-tetrahydro-3′H,4H,7′H-spiro[isoxazole-5,6′-[2,7]methanopyrido[1,2-a][1,4]diazonin]-12′-yl)oxy)methyl)pyridin-3-yl dihydrogen phosphate]: in the data set on HIV-1 (IIIB) (setting [1]), the EC50 amounted to 1.63 nM. This compound showed a CC50 in the data set “in vitro” of 10200 nM. Also, the thermodynamic solubility in “physchem” is 2460 µg/mL.

Regarding `CC1=NO[C@@]2(CC[C@H](C)N3C[C@H]2n2cc(C(=O)NCc4ccc(F)cc4F)c(=O)c(OCOC(=O)OCc4ccncc4OP(=O)(O)O)c2C3=O)C1` [Compound 72, (((3′S,5S,7′R)-10′-((2,4-difluorobenzyl)carbamoyl)-3,3′-dimethyl-1′,11′-dioxo-1′,4′,5′,11′-tetrahydro-3′H,4H,7′H-spiro[isoxazole-5,6′-[2,7]methanopyrido[1,2-a][1,4]diazonin]-12′-yl)oxy)methyl ((3-(phosphonooxy)pyridin-4-yl)methyl) carbonate], the EC50 in the data set with HIV-1 (IIIB) (setting [1]) came to 1.34 nM. Besides, the CC50 in “in vitro” was found to be 11200 nM. For the same compound, the thermodynamic solubility in “physchem” stood at 2560 µg/mL (≈ 3.42 mM).

Turning to `CC1=NO[C@@]2(CC[C@H](C)N3C[C@H]2n2cc(C(=O)NCc4ccc(F)cc4F)c(=O)c(OCOC(=O)O[C@@H]4CC[C@H](OP(=O)(O)O)C4)c2C3=O)C1` [Compound 54, (((3′S,5S,7′R)-10′-((2,4-difluorobenzyl)carbamoyl)-3,3′-dimethyl-1′11′-dioxo-1′,4′,5′,11′-tetrahydro-3′H,4H,7′H-spiro[isoxazole-5,6′-[2,7]methanopyrido[1,2-a][1,4]diazonin]-12′-yl)oxy)methyl ((cis)-3-(phosphonooxy)cyclopentyl) carbonate], the EC50 with HIV-1 (IIIB) (setting [2]) stood at 9.29 nM. Besides, in the data set “in vitro”, the CC50 at 5 days is at least 50000 nM. The solubility (thermodynamic) at 24 h in the data set “physchem” is 5280 µg/mL (≈ 7.29 mM).

With `COC(=O)CN(Cc1cccnc1N(C)C(=O)Oc1c2n(cc(C(=O)NCc3ccc(F)cc3F)c1=O)[C@@H]1CN(C2=O)[C@@H](C)CC[C@]12CC(C)=NO2)C(=O)OCOP(=O)(O)O` [Compound 34, methyl N-((2-(((((3′S,5S,7′R)-10′-((2,4-difluorobenzyl)carbamoyl)-3,3′-dimethyl-1′,11′-dioxo-1′,4′,5′,11′-tetrahydro-3′H,4H,7′H-spiro[isoxazole-5,6′-[2,7]methanopyrido[1,2-a][1,4]diazonin]-12′-yl)oxy)carbonyl)(methyl)amino)pyridin-3-yl)methyl)-N-(((phosphonooxy)methoxy)carbonyl)glycinate], in the data set with HIV-1 (IIIB) (setting [1]), the EC50 came out at 1.4 nM. This compound also gave a CC50 in “in vitro” of 12800 nM. The thermodynamic solubility in the data set “physchem” worked out at 4920 µg/mL (≈ 5.62 mM).

On to `CC1=NO[C@@]2(CC[C@H](C)N3C[C@H]2n2cc(C(=O)NCc4ccc(F)cc4F)c(=O)c(OCOC(=O)N4CCOC[C@@H]4COP(=O)(O)O)c2C3=O)C1` [Compound 63, (((3′S,5S,7′R)-10′-((2,4-difluorobenzyl)carbamoyl)-3,3′-dimethyl-1′,11′-dioxo-1′,4′,5′,11′-tetrahydro-3′H,4H,7′H-spiro[isoxazole-5,6′-[2,7]methanopyrido[1,2-a][1,4]diazonin]-12′-yl)oxy)methyl (3R)-3-((phosphonooxy)methyl)morpholine-4-carboxylate], for which the EC50 with HIV-1 (IIIB) (setting [1]) is 18.7 nM. The same compound returned a CC50 in the data set “in vitro” of at least 50000 nM. For the same compound, the thermodynamic solubility in the data set “physchem” worked out at 5000 µg/mL (≈ 6.76 mM).

On to `CC1=NO[C@@]2(CC[C@H](C)N3C[C@H]2n2cc(C(=O)NCc4ccc(F)cc4F)c(=O)c(OCOC(=O)N(C)c4ncccc4COC(=O)[C@H](C)N)c2C3=O)C1` [Compound 11, (2-((((((3′S,5S,7′R)-10′-((2,4-difluorobenzyl)carbamoyl)-3,3′-dimethyl-1′,11′-dioxo-1′,4′,5′,11′-tetrahydro-3′H,4H,7′H-spiro[isoxazole-5,6′-[2,7]methanopyrido[1,2-a][1,4]diazonin]-12′-yl)oxy)methoxy)carbonyl)(methyl)amino)pyridin-3-yl)methyl L-alaninate], for which, in the data set with HIV-1 (IIIB) (setting [2]), the EC50 is 1.9 nM. In the data set “in vitro”, this compound displayed a CC50 at 5 days of 14500 nM. Also, in the data set “physchem”, the thermodynamic solubility at 24 h came to 2 µg/mL (≈ 0.00266 mM).

`CC1=NO[C@@]2(CC[C@H](C)N3C[C@H]2n2cc(C(=O)NCc4ccc(F)cc4F)c(=O)c(OCOC(=O)O[C@H]4CCCC[C@@H]4OP(=O)(O)O)c2C3=O)C1` [Compound 44, (((3′S,5S,7′R)-10′-((2,4-difluorobenzyl)carbamoyl)-3,3′-dimethyl-1′,11′-dioxo-1′,4′,5′,11′-tetrahydro-3′H,4H,7′H-spiro[isoxazole-5,6′-[2,7]methanopyrido[1,2-a][1,4]diazonin]-12′-yl)oxy)methyl ((1S,2S)-2-(phosphonooxy)cyclohexyl) carbonate]: in the data set with HIV-1 (IIIB) (setting [2]), the EC50 is 1.8 nM. This compound also came in with a CC50 at 5 days in “in vitro” of 13500 nM. The compound also displayed a solubility (thermodynamic) at 24 h in the data set “physchem” of 4440 µg/mL (≈ 6.01 mM).

As to `CC1=NO[C@@]2(CC[C@H](C)N3C[C@H]2n2cc(C(=O)NCc4ccc(F)cc4F)c(=O)c(OCOC(=O)OC[C@@H]4C[C@@H]4COP(=O)(O)O)c2C3=O)C1` [Compound 49, (((3′S,5S,7′R)-10′-((2,4-difluorobenzyl)carbamoyl)-3,3′-dimethyl-1′,11′-dioxo-1′,4′,5′,11′-tetrahydro-3′H,4H,7′H-spiro[isoxazole-5,6′-[2,7]methanopyrido[1,2-a][1,4]diazonin]-12′-yl)oxy)methyl (((1R,2S)-2-((phosphonooxy)methyl)cyclopropyl)methyl) carbonate], the EC50 with HIV-1 (IIIB) (setting [2]) was determined as 4.17 nM. In the data set “in vitro”, this compound gave a CC50 at 5 days of 23300 nM. The thermodynamic solubility at 24 h in the data set “physchem” worked out at 4890 µg/mL (≈ 6.75 mM).

Take `CC1=NO[C@@]2(CC[C@H](C)N3C[C@H]2n2cc(C(=O)NCc4ccc(F)cc4F)c(=O)c(OC(=O)N(C)c4ncc(C(=O)O)cc4COP(=O)(O)O)c2C3=O)C1` [Compound 4, 6-(((((3′S,5S,7′R)-10′-((2,4-difluorobenzyl)carbamoyl)-3,3′-dimethyl-1′,11′-dioxo-1′,4′,5′,11′-tetrahydro-3′H,4H,7′H-spiro[isoxazole-5,6′-[2,7]methanopyrido[1,2-a][1,4]diazonin]-12′-yl)oxy)carbonyl)(methyl)amino)-5-((phosphonooxy)methyl)nicotinic acid]: the EC50 with HIV-1 (IIIB) (setting [1]) was determined as 14.8 nM. This compound gave a CC50 in “in vitro” of at least 50000 nM. The solubility (thermodynamic) in “physchem” was 4800 µg/mL (≈ 6.2 mM).

Turning to `CC1=NO[C@@]2(CC[C@H](C)N3C[C@H]2n2cc(C(=O)NCc4ccc(F)cc4F)c(=O)c(OCOC(=O)N(C)c4ncccc4CN(C)C(=O)OCOP(=O)(O)O)c2C3=O)C1` [Compound 62, (phosphonooxy)methyl ((2-((((((3′S,5S,7′R)-10′-((2,4-difluorobenzyl)carbamoyl)-3,3′-dimethyl-1′,11′-dioxo-1′,4′,5′,11′-tetrahydro-3′H,4H,7′H-spiro[isoxazole-5,6′-[2,7]methanopyrido[1,2-a][1,4]diazonin]-12′-yl)oxy)methoxy)carbonyl)(methyl)amino)pyridin-3-yl)methyl)(methyl)carbamate], in the data set on HIV-1 (IIIB) (setting [1]), the EC50 was determined as 1.73 nM. In addition, the CC50 in the data set “in vitro” was 14600 nM. Moreover, the thermodynamic solubility in “physchem” is 5030 µg/mL (≈ 5.93 mM).

With `CC1=NO[C@@]2(CC[C@H](C)N3C[C@H]2n2cc(C(=O)NCc4ccc(F)cc4F)c(=O)c(OCOC(=O)N(C)Cc4ccccc4OP(=O)(O)O)c2C3=O)C1` [Compound 37, (((3′S,5S,7′R)-10′-((2,4-difluorobenzyl)carbamoyl)-3,3′-dimethyl-1′,11′-dioxo-1′,4′,5′,11′-tetrahydro-3′H,4H,7′H-spiro[isoxazole-5,6′-[2,7]methanopyrido[1,2-a][1,4]diazonin]-12′-yl)oxy)methyl methyl(2-(phosphonooxy)benzyl)carbamate], the EC50 in the data set with HIV-1 (IIIB) (setting [1]) worked out at 13.3 nM. The CC50 in “in vitro” is 33500 nM. Moreover, in the data set “physchem”, the solubility (thermodynamic) is 4500 µg/mL (≈ 5.92 mM).

Regarding `CC1=NO[C@@]2(CC[C@H](C)N3C[C@H]2n2cc(C(=O)NCc4ccc(F)cc4F)c(=O)c(OCOC(=O)N(C)Cc4cc(C(=O)O)ccc4OP(=O)(O)O)c2C3=O)C1` [Compound 76, 3-(((((((3′S,5S,7′R)-10′-((2,4-difluorobenzyl)carbamoyl)-3,3′-dimethyl-1′,11′-dioxo-1′,4′,5′,11′-tetrahydro-3′H,4H,7′H-spiro[isoxazole-5,6′-[2,7]methanopyrido[1,2-a][1,4]diazonin]-12′-yl)oxy)methoxy)carbonyl)(methyl)amino)methyl)-4-(phosphonooxy)benzoic acid], in the data set on HIV-1 (IIIB) (setting [1]), the EC50 was determined as 4.41 nM. In “in vitro”, this compound returned a CC50 of 12900 nM. Besides, the solubility (thermodynamic) in “physchem” worked out at 4060 µg/mL (≈ 5.05 mM).

As for `CC1=NO[C@@]2(CC[C@H](C)N3C[C@H]2n2cc(C(=O)NCc4ccc(F)cc4F)c(=O)c(OCOC(=O)OCCC(C)(C)c4c(CC(=O)O)cc(C)cc4OP(=O)(O)O)c2C3=O)C1` [Compound 23, 2-(2-(4-((((((3′S,5S,7′R)-10′-((2,4-difluorobenzyl)carbamoyl)-3,3′-dimethyl-1′,11′-dioxo-1′,4′,5′,11′-tetrahydro-3′H,4H,7′H-spiro[isoxazole-5,6′-[2,7]methanopyrido[1,2-a][1,4]diazonin]-12′-yl)oxy)methoxy)carbonyl)oxy)-2-methylbutan-2-yl)-5-methyl-3-(phosphonooxy)phenyl)acetic acid], the EC50 in the data set with HIV-1 (IIIB) (setting [1]) was 2.11 nM. This compound also came in with a CC50 in the data set “in vitro” of 14600 nM. The solubility (thermodynamic) in the data set “physchem” came out at 4750 µg/mL (≈ 5.43 mM).
